# Measurements from patent publication US20240122930A1, “INTEGRIN INHIBITORS AND USES THEREOF IN COMBINATION WITH OTHER AGENTS” (Pliant Therapeutics, Inc., priority 2022, published 2024).
# “Also recorded” adds a separate entry of the source.
# Key:
# [1] = system: Type I Collagen gene Col1a1 expression; assay: Precision cut lung slices, acute bleomycin exposure, Col1a1 expression; type: cell-based, mice (C57BL/6); settings: acute bleomycin PCLS, 3 days culture; integrin inhibitors at IC50 for TGF-beta activation, pan-αV and ALK5 inhibitors at 10× IC50
# Method: Mice (C57BL/6) were administered 3 U/kg of bleomycin (Teva Pharmaceuticals; North Wales, PA) on day 0 via oropharyngeal aspiration while under anesthesia. On day 14, precision cut lung slices were obtained. Following euthanization, 2% low gelling temp agarose was injected into the mouse lungs via the trachea. […] The lobes were then subjected to precision slicing to obtain samples for culture using a microtome (Compresstome VF-300-OZ, Precisionary; Greenville, NC). Individual slices were distributed in a multiwell culture plate and cultured for 3 days under control (DMSO) and test compound conditions. The viability of the slices over the course of culturing was confirmed by WST-1 assay of mitochondrial activity.
# [2] = system: participants with idiopathic pulmonary fibrosis (IPF); assay: Phase 2a clinical trial: patient-reported cough severity visual analog scale (VAS); type: in vivo, human; settings: 320 mg, weeks 12 and 24, ITT; worsening on placebo
# Method: Of interest, patients receiving Compound 5 experienced a positive impact on cough severity, while cough severity in patients receiving placebo worsened over time. […] The data histograms from left to right are 320 mg Compound 5 treatment at week 12, 320 mg Compound 5 treatment at week 24, placebo treatment at week 12, and placebo treatment at week 24. […] Cough VAS measured patient reported cough severity over last 2 weeks on scale of 0-100 mm.
# [3] = system: PRO-C6, Type VI collagen synthesis neoepitope; assay: Phase 2a clinical trial: serum biomarker PRO-C6; type: in vivo, human; settings: IPF participants, 40 to 320 mg, 4 and 12 weeks
# Method: Blank columns represent 40 mg Compound 5 dosage. Grid pattern filled columns represent 80 mg Compound 5 dosage. Diagonal line filled columns represent 160 mg Compound 5 dosage. Dot filled columns represent all participants dosed with Compound 5. […] In FIG. 21, LS refers to Least Squares and SEM refers to Standard Error of Mean.
# PRO-C3 and PRO-C6, serum biomarkers of type III and VI collagen synthesis, respectively, were previously shown to be elevated in patients with IPF and associated with progressive disease, according to Respir Res. 2019 Jul. 12; 20(1):148. Doi: 10.1186/s12931-019-1118-7, which is herein incorporated by reference in its entirety. Change from baseline was analyzed using a mixed model for repeated measures with terms for treatment group, visit, baseline value, and treatment-by-visit interaction. LS refers to Least Squares; SE refers to Standard Error.
# [4] = system: participants with idiopathic pulmonary fibrosis (IPF); assay: Phase 2a clinical trial ([…]-IPF): Forced Vital Capacity (FVC) spirometry; type: in vivo, human
# Method: Study Design and Objectives. […] At Day 1, baseline values were collected.
# Data shown from left to right is participants treatment with 40 mg Compound 5, 80 mg Compound 5, 160 mg Compound 5, all participants treated with Compound 5, and participants treated with Placebo. Change from baseline was analyzed using a mixed model for repeated measures with terms for treatment group, SOC (Y/N), visit, baseline value, and treatment-by-visit interaction. An unstructured covariance (UN) structure was used.
# […]-IPF study design and objectives.
# The histograms from left to right are 40 mg (n=22) with a LS Mean (SE) change from Baseline in FVC (mL) at Week 12 of −48.6, 80 mg (n=23) with a LS Mean (SE) change from Baseline in FVC (mL) at Week 12 of 22.8, 160 mg (n=22) with a LS Mean (SE) change from Baseline in FVC (mL) at Week 12 of −28.7, 320 mg (n=21) with a LS Mean (SE) change from Baseline in FVC (mL) at Week 12 of 26.8, and placebo (n=31) with a LS Mean (SE) change from Baseline in FVC (mL) at Week 12 of −64.2. Change from baseline in FVC analyzed using a mixed model for repeated measures (MMRM) with terms for treatment group, use of SOC, week and baseline value. FVC=Forced Vital Capacity. mITT=Modified Intent to Treat. * p<0.05. **p<0.01.
# At Day 1, baseline values were collected.
# [5] = system: pSmad2/Smad2; assay: Alveolar (BAL) pSmad2/Smad2, change from baseline at 24 hours (FIG. 12, prior studies); type: in vivo, human; settings: 80 mg and 160 mg, p<0.0001 at both doses
# Description: FIG. 12 through FIG. 33 illustrate various details and results from the clinical trial. […] In FIG. 12, BAL refers to bronchoalveolar lavage; pSmad2/Smad2 refers to ratio of phosphorylated Smad2 to total Smad2; and QD refers to once daily. **** refers to p<0.0001.
smiles,measurement,setting,value
"COCCN(CCCCc1ccc2c(n1)NCCC2)CC[C@H](Nc1ncnc2ccccc12)C(=O)O [Compound 5, (S)-4-((2-methoxyethyl) (4-(5,6,7,8-tetrahydro-1,8-naphthyridin-2-yl)butyl)amino)-2-(quinazolin-4-ylamino) butanoic acid]","Type I Collagen gene Col1a1 expression, normalized to DMSO control slices",[1],decreased Type I Collagen gene Col1a1 expression substantially
same,"Patient-reported cough severity (VAS), change from baseline",[2],reduced
same,"Serum PRO-C6, change from baseline relative to placebo",[3],decreased; also recorded: reduced
same,"LS Mean (SE) change from Baseline in FVC at Week 12, mITT, FIG. 27","[4]; 40 mg (n=22), placebo (n=31) −64.2",-48.6 mL
same,Treatment effect on FVC with and without use of standard-of-care agents,[4]; 12 weeks,evident; also recorded: observed
same,"Alveolar pSmad2/Smad2, Percentage Change from Baseline at 24 Hours vs. placebo",[5],statistically significant
